pIC50, pKd: −log10 of the molar value. Converted amounts (≈) assume the structure as drawn. Like-named read-outs stand apart in the source and are kept apart here. Values belong to the molecule of their own block, whether it stands above or below them.
What was measured:
S. aureus NTCC 12973 = assay: MIC broth microdilution assay; format: cell-based, Staphylococcus aureus; conditions: 24 h, read-out: MIC S. aureus (Gram positive)
Procedure: (§1) Antibacterial activity assay […]
(§2) MIC broth microdilution assay
(§3) 3 × 125 mL Erlenmeyer flasks, each filled with 12.5 mL MHBII, were inoculated with three different colonies of S. aureus NTCC 12973. 3 × 125 mL Erlenmeyer flasks, each filled with 12.5 mL BHI broth, were inoculated with three different colonies of E. faecium ATCC 19434. The cultures were incubated at 37 °C with shaking at 180 rpm for 16 h.
(§4) OD600 of ~2.5. The suspensions of S. aureus cultures were diluted 100-fold with MHBII while the E. faecium cultures were diluted 4-fold. The resultant suspensions were incubated for a further 3 h at 37 °C with shaking. […]
(§5) after 3 h. Stock solutions of the title compounds were prepared in the requisite broth from 100 mM stocks in DMSO with the exception of carbenicillin, which was from a 100 mM stock in water and vancomycin from a 10 mM stock in DMSO. 15 × 96 well plates were primed with concentration gradients of the analytes and carbenicillin as shown in Figure S60 for S. aureus. 15 × 96 well plates were primed with the concentration […]
(§6) μL per well of the relevant bacterial culture in the requisite broth to 100 μL per well.
Plates were then incubated at 37 °C for 24 h before reading OD600 on a BMG Clariostar […]
Figure S50: Dose response profiles of the title compounds against S. aureus.
(§7) (1 picture or pasted object on this page, not shown here)

[1] = system: Escherichia coli K12 ATCC 10798; assay: Rapid screen broth microdilution assay; format: cell-based; conditions: rapid screen without replicates, 24 h, read-out: MIC E. coli (Gram negative)
Procedure: (§8) Antibacterial activity assay
(§9) Rapid screen broth microdilution assay
(§10) 5 × 125 mL Erlenmeyer flasks, each filled with 12.5 mL Mueller Hinton broth II (MHBII), were inoculated with Klebsiella pneumoniae ATCC 13883, Acinetobacter baumanii ATCC 17978, Psuedomonas aeruginosa ATCC BAA-47, Staphylococcus aureus […]
(§11) with 12.5 mL BHI broth was inoculated with Enterococcus faecium ATCC 19434. The cultures were incubated at 37 °C with shaking at 180 rpm for 16 h. The suspensions were diluted 100-fold with the requisite broth (E. faecium: 4-fold) and the resultant suspensions incubated for a further 3 h at 37 °C with shaking. […]
(§12) of 0.8–1.2 after 3 h. Stock solutions of the title compounds were prepared in the requisite broth from 100 mM stocks in DMSO with the exceptions of carbenicillin, which was from a 100 mM stock in water and ciprofloxacin from a 10 mM stock in DMSO.
(§13) 6 × 96 well plates were primed with a concentration gradient of the analytes from 200 to 3.13 µM, carbenicillin from 200 to 3.13 µM and ciprofloxacin from 10 to 0.16 µM. The cells were diluted 100-fold to an OD600 of 0.01. All plates were then inoculated with 50 μL per well bacterial culture in the requisite broth to 100 μL per well. Plates were then incubated at 37 °C for 24 h before reading OD600 on a BMG Clariostar platereader. […]

[2] = system: Klebsiella pneumoniae ATCC 13883; assay: Rapid screen broth microdilution assay; format: cell-based; conditions: rapid screen without replicates, 24 h, read-out: MIC K. pnuemoniae (Gram negative)
Procedure: as §8, §9, §10, §11, §12, §13

[3] = system: Acinetobacter baumanii ATCC 17978; assay: Rapid screen broth microdilution assay; format: cell-based, Acinetobacter baumannii; conditions: rapid screen without replicates, 24 h, read-out: MIC A. baumannii (Gram negative)
Procedure: as §8, §9, §10, §11, §12, §13

[4] = system: Psuedomonas aeruginosa ATCC BAA-47; assay: Rapid screen broth microdilution assay; format: cell-based, Pseudomonas aeruginosa; conditions: rapid screen without replicates, 24 h, read-out: MIC P. aeruginosa (Gram negative)
Procedure: as §8, §9, §10, §11, §12, §13

[5] = system: BEASB2, HaCat, RPE1, HCT116 and HeLa cell lines; assay: Cell viability, summary over all cell lines studied; format: cell-based, human; conditions: summary of Table 3, 48 h; for pIC50: read-out: IC50 values, range over all cell lines studied
Procedure: (§14) To determine the relative viability, after incubation cells were fixed and stained with DAPI and the number of nuclei per well determined using a CeligoTM Image Cytometer (Figure S52 to S60). […] page 43: Cell viability studies Compound cytotoxicity was tested simultaneously on five representative cell lines […] All cells were cultured in DMEM Glutamax without pyruvate with 10% fetal bovine serum and 1% penicillin/streptomycin (Gibco). Cells were incubated with the compound for 24 or 48 h […] The tested concentration range for each compound was […] The required […] Greiner CELLSTAR® microplates) using the Echo 550 Acoustic Liquid Handler and wells were back-filled with DMSO when required to keep a final DMSO concentration […] Next, 50 μL of cell solution was added to the compound-containing wells using the Integra® […] Bulk dispenser. Cell solutions were prepared to get 5000 […] cells per well for hTERT RPE-1, and 5000 (24 h)/2500 (48 h) cells per well for BEAS- […] After incubation, cells were fixed with 4% PFA (Merck, […]), permeabilized with […] DAPI (Merck, 10236276001). Viable cells were counted using 377 nm excitation and 447 nm emission filters on the CeligoTM Image Cytometer. The number of nuclei per well was determined using the Direct Cell Count analysis from the CeligoPro Sofware […] All conditions were performed in triplicate. Staurosporine (Cambridge Bioscience, s7600) was used as a positive control and DMSO only as a negative control. The percentage of cell viability was normalized to the DMSO-only control and […] logistic curve with the scipy.optimize.curve_fit function. S43

[6] = LogP by shake-flask method (n-octanol/phosphate buffer)
Procedure: using the "shake-flask" method.[6],[7] In short, phosphate buffer (50 mM, pH 7.4) was saturated with n-octanol by shaking a 1:1 mixture of both solution on a laboratory shaker for 72 h, after which the phases were separated. Stock solutions of each complex were then prepared in dimethylsulfoxide at a concentration of 10 mM. […]
(§15) solution with a concentration of 100 µM. From this solution, 1000 µL were transferred into an Eppendorf tube and mixed with 1000 µL of n-octanol. After shaking for 15 min and centrifugation (5 min, 6000 rpm), the two phases were carefully separated, and the contact layer discarded. Then, the absorbance of each phase was recorded with an Agilent 8453 UV/Vis spectrometer.
as §15, with “2 mL solution with” for “solution with”, “1000 µL phosphate buffer. After shaking” for “1000 µL of n-octanol. After shaking”, “rpm), the phases were” for “rpm), the two phases were”

avidin = molecular target: T1, avidin (Gallus gallus, UniProt P02701); assay: HABA/avidin assay; format: binding; conditions: titration of HABA/avidin mixture, absorbance at 500 nm
T1 construct: purchased SIGMA-ALDRICH A9275
Procedure: properties towards avidin using the HABA assay.[8] A mixture of avidin (6.8 μM, SIGMA-ALDRICH: A9275) and 4'-hydroxyazobenzene-2-carboxylic acid (HABA, 0.3 mM, SIGMA-ALDRICH: H5126) was dissolved in 50 mM sodium phosphate buffer (20 mL, pH 7.4) and allowed to equilibrate for 24 h at 4 °C. Stock solutions of each compound were prepared in dimethyl sulfoxide at a concentration of 1.1 mM. The […]
to the prepared avidin/HABA mixture (1 mL) at room temperature at 5–10 min intervals […]
absorbance then recorded with an Agilent 8453 UV/Vis spectrometer. The formation of the adduct was indicated by a decrease in the absorbance at 500 nm due to the displacement of HABA from the avidin. By plotting -ΔA500 nm vs. the molar concentration ratio c(compound):c(avidin), the binding stoichiometry of the compound to avidin was determined.

E. faecium ATCC 19434 = assay: MIC broth microdilution assay; format: cell-based, Enterococcus faecium; conditions: three colonies, 24 h; for MIC: read-out: MIC E. faecium (Gram positive)
Procedure: as §1, §2, §3, §4, §5, §6

[7] = system: HaCat (non-cancer skin) cells; assay: Cell viability (DAPI nuclei count); format: cell-based, human; conditions: 48 h
Procedure: as §14

[8] = system: HeLa (cervical cancer) cells; assay: Cell viability (DAPI nuclei count); format: cell-based, human; conditions: 48 h
Procedure: as §14

[9] = system: HCT116 (colorectal cancer) cells; assay: Cell viability (DAPI nuclei count); format: cell-based, human; conditions: 48 h
Procedure: as §14

[10] = system: RPE1 (retinal pigment epithelial cells); assay: Cell viability (DAPI nuclei count); format: cell-based, human; conditions: 48 h
Procedure: as §14

[11] = system: BEAS2B (non-cancer lung) cells; assay: Cell viability (DAPI nuclei count); format: cell-based, human; conditions: 48 h
Procedure: as §14

streptavidin = streptavidin (Streptomyces avidinii, UniProt P22629); assay: Isothermal titration calorimetry (ITC) with streptavidin; format: binding; conditions: 25 °C, 10 mM HEPES + 2% DMSO, read-out: dissociation constant (Kd) to streptavidin
Procedure: Isothermal titration calorimetry
Streptavidin (20 µM in 10 mM HEPES plus 2% DMSO) was titrated stepwise with 2 uL injections of the compound (200 µM in 10 mM HEPES + 2% DMSO) at 25 °C, using a Malvern MicroCal PEAQ-ITC. Raw thermograms (top panels) and the binding isotherm from the integrated thermogram (bottom panels) were fit using the One Set of Sites model in the MicroCal PEAQ-ITC analysis software. Circles indicate the integrated heat, and the curve represents the best fit.
Figure S46: Isothermal titration calorimetry measurements of 5.
as §7

T1 sequence (P02701 25-152): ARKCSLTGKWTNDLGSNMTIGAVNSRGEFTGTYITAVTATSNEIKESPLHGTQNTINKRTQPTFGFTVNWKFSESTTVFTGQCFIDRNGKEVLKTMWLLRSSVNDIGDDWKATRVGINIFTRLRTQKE

MIC (S. aureus NTCC 12973; Staphylococcus aureus, NTCC12973, three colonies): 12.5 µM (≈ 4.73 µg/mL)
MIC ([1]; Escherichia coli, ATCC10798): 12.5 µM (≈ 4.73 µg/mL)
Molecule: CC1(C)S[C@@H]2[C@H](NC(=O)C(C(=O)O)c3ccccc3)C(=O)N2[C@H]1C(=O)O (stereo partly drawn) [Carbenicillin, reference compound]

MIC ([2]; Klebsiella pneumoniae, ATCC13883): < 0.16 µM
MIC ([3]; Acinetobacter baumannii, ATCC17978): 0.31 µM (≈ 0.103 µg/mL)
MIC ([4]; Pseudomonas aeruginosa, ATCCBAA47): 100 µM (≈ 33.1 µg/mL)
Molecule: O=C(O)c1cn(C2CC2)c2cc(N3CCNCC3)c(F)cc2c1=O [Ciprofloxacin, reference compound]

Molecule: CC(=O)c1n[n]([Au][PH](c2ccccc2)(c2ccccc2)c2ccccc2)nc1-c1ccccc1 [Compound 11, [Au(triazolatoC6H5,COCH3)(PPh3)]]
MIC (S. aureus NTCC 12973; three colonies): 2.5 µM
pIC50 [5]: 5.10 to 5.70
MIC [1]: >200 µM
MIC [2]: >200 µM
LogP ([6]; pH 7.4): highly lipophilic^a
avidin binding in HABA assay (result in words) (avidin): non-specific protein binding
MIC [3]: 100 µM
MIC E. faecium (Gram positive) (E. faecium ATCC 19434): 0.625 to 5 µM
MIC [4]: >200 µM
pIC50 [7]: 5.21
pIC50 [8]: 5.46
pIC50 [9]: 5.26
pIC50 [10]: 5.57
pIC50 [11]: 5.60

MIC (S. aureus NTCC 12973; three colonies): 200 µM
MIC [1]: >200 µM
MIC [2]: >200 µM
LogP ([6]; pH 7.4): highly lipophilic^a
avidin binding in HABA assay (result in words) (avidin): non-specific protein binding
MIC [3]: >200 µM
MIC (E. faecium ATCC 19434): >200 µM
MIC [4]: >200 µM
pIC50 [8]: < 4.30
pIC50 [9]: < 4.30
Molecule: COC(=O)c1n[n]([Pt][c]2c(-c3ccccn3)cccc2-c2ccccn2)nc1C(=O)OC [Compound 13]
IC50 values, range over all cell lines studied [5]: did not show any biological activity
pIC50 [7]: < 4.30
pIC50 [10]: < 4.30

Molecule: O=C1N[C@H]2[C@H](CS[C@H]2CCCCC(=O)c2n[n]([Pt][c]3c(-c4ccccn4)cccc3-c3ccccn3)nc2-c2ccccc2)N1 [Compound 14, [Pt(triazolatoC6H5,biotin)(dpb)]]
MIC (S. aureus NTCC 12973; three colonies): 12.5 µM
MIC [1]: >200 µM
MIC [2]: >200 µM
LogP ([6]; shake-flask method, n-octanol/phosphate buffer 50 mM pH 7.4): highly lipophilic^a
MIC [3]: >200 µM
MIC E. faecium (Gram positive) (E. faecium ATCC 19434): 5 to 10 µM
MIC [4]: >200 µM
pIC50 [7]: 4.99
pIC50 [8]: 5.09
pIC50 [9]: 5.03
pIC50 [10]: 5.13
pIC50 [11]: 5.17

Molecule: COC(=O)c1n[n]([Ir+][c]2ccccc2-c2ccccn2)nc1C(=O)OC.F[P-](F)(F)(F)(F)F.c1ccc(-c2cccc(-c3ccccn3)n2)nc1 [Compound 17]
MIC (S. aureus NTCC 12973; three colonies): >200 µM
pIC50 [5]: < 4.46
MIC [1]: >200 µM
MIC [2]: >200 µM
LogP ([6]; pH 7.4): -1.02
avidin binding in HABA assay (result in words) (avidin): non-specific protein binding
MIC [3]: >200 µM
MIC (E. faecium ATCC 19434): >200 µM
MIC [4]: >200 µM
pIC50 [7]: < 4.30
pIC50 [8]: < 4.30
pIC50 [9]: < 4.30
pIC50 [10]: 4.46

Molecule: [Au(triazolatoC6H5,biotin)(PPh3)] [Compound 12]
MIC (S. aureus NTCC 12973; three colonies): 1.25 µM
pIC50 [5]: 5.10 to 5.70
MIC [1]: >200 µM
MIC [2]: >200 µM
MIC [3]: 50 µM
MIC E. faecium (Gram positive) (E. faecium ATCC 19434): 0.625 to 2.5 µM
MIC [4]: >200 µM
pIC50 [7]: 5.18
pIC50 [8]: 5.42
pIC50 [9]: 5.14
pIC50 [10]: 5.44
pIC50 [11]: 5.57

Molecule: [Ir(triazolatoC6H5,biotin)(ppy)(terpy]PF6 [Compound 18]
MIC (S. aureus NTCC 12973; three colonies): 100 µM
pIC50 [5]: < 4.46
MIC [1]: >200 µM
MIC [2]: >200 µM
MIC [3]: >200 µM
pKd (streptavidin): 7.35
MIC (E. faecium ATCC 19434): 100 µM
MIC [4]: >200 µM
pIC50 [7]: < 4.30
pIC50 [8]: < 4.30
pIC50 [9]: < 4.30
pIC50 [10]: 4.40

From paper PMC7616682 (Journal of biological inorganic chemistry : JBIC : a …, 2024)
